Results on 26 compounds are retold here after patent US20190010167A1, “INHIBITORS OF THE MENIN-MLL INTERACTION” (Vitae Pharmaceuticals, Inc., priority 2015, published 2019).

Molecules are shown by their SMILES.

The target of the test is T1, wild-type menin / MLL-AF9 fusion protein (Homo sapiens, UniProt O00255).
T1 construct: made in house; host or cells: E. coli (menin); HEK293 cleared lysate (MLL-AF9-FLAG)
T1 sequence (O00255 1-610): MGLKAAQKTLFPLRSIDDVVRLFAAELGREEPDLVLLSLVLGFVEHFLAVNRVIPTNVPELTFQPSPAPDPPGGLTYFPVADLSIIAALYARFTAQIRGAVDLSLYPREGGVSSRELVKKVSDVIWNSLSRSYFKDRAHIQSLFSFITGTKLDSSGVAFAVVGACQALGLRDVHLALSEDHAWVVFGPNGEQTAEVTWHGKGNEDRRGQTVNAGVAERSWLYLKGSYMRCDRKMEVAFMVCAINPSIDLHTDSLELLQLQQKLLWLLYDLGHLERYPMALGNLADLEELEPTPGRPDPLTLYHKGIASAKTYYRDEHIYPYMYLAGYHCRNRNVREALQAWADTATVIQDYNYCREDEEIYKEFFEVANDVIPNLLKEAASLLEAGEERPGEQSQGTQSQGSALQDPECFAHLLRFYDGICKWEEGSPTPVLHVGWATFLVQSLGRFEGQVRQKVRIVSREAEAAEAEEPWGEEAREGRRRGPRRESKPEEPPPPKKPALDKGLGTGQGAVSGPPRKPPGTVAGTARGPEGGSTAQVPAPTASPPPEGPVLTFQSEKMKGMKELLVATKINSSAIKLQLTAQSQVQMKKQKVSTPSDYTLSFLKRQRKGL
In words: AlphaLISA menin/MLL binding assay, wild-type menin (Assay 1). The settings on record: biotinylated wild-type menin 5 nM, MLL-AF9-FLAG lysate. How it is done:
Potencies of inhibitor compounds against menin/MLL binding were assessed by AlphaLISA assay using biotinylated (1) wild-type menin or (2) mutated menin (described in Nature (2012) Vol. 482, pp. 542-548) and MLL-AF9 fusion protein bearing a FLAG epitope at its C-terminus. Menin proteins were expressed in E. coli and covalently modified with biotin using EZ-Link™ Sulfo-NHS-Biotin (ThermoFisher Cat. No. 21217) according to manufacturer's protocol. MLL1-1,396 fused to AF91-92 and the C-terminal FLAG peptide was expressed in HEK293 cells and used as a lysate cleared at 21,000×g for 10 min.
Compounds (2 μL of solutions in DMSO) were dispensed in white 96-well half-area plates (Corning Cat. No. 3693) and incubated for 30 min at RT with 5 nM biotinylated menin and appropriate amount of MLL-AF9-FLAG lysate in 40 μL of 50 mM Tris-HCl buffer pH 7.4 containing 5% (v/v) DMSO, 50 mM NaCl, 0.01% (w/v) bovine serum albumin (BSA) and 1 mM DTT. To this incubation mixture, 40 μl of AlphaLISA anti-FLAG acceptor (PerkinElmer Cat. No. AL112C) and streptavidin donor (PerkinElmer Cat. No. 6760002) beads (10 μg/mL each) was added and incubation continued at RT for 60 min. Alpha (amplified luminescent proximity homogeneous assay) signal was measured on an Envision multi-label plate reader at the end of the incubation. All steps were conducted under dim fluorescent light.
These percent inhibition values were regressed against compound concentrations in the assay using four parameter logit non-linear curve fitting (XLFit, IDBS). The IC50 values were derived from the curve fitting as inflection points on the dose-response curves and are set out in Table 1 below.
Take `FC(F)(F)Cc1cc2c(N3CCC4(CCN(CC5CCOCC5)CC4)C3)ncnc2s1` [Example 115, 4-(8-((tetrahydro-2H-pyran-4-yl)methyl)-2,8-diazaspiro[4.5]decan-2-yl)-6-(2,2,2-trifluoroethyl)thieno[2,3-d]pyrimidine]: the IC50 was in the range of 100 to 1000 nM.
In turn, `FC(F)(F)Cc1cc2c(N3CC4(CN(CC5CC(F)(F)C5)C4)C3)ncnc2s1` [Example 74, 4-(6-((3,3-difluorocyclobutyl)methyl)-2,6-diazaspiro[3.3]heptan-2-yl)-6-(2,2,2-trifluoroethyl)thieno[2,3-d]pyrimidine] returned an IC50 not below 1000 nM.
The value for `CS(=O)(=O)c1ccc(CC(=O)N2CC3(C2)CN(c2ncnc4sc(CC(F)(F)F)cc24)C3)cc1` [Example 62, 2-(4-(methylsulfonyl)phenyl)-1-(6-(6-(2,2,2-trifluoroethyl)thieno[2,3-d]pyrimidin-4-yl)-2,6-diazaspiro[3.3]heptan-2-yl)ethan-1-one] was 100 to 1000 nM; that for `O=C([C@@H]1CCCN1)N1CCC2(CCN(c3ncnc4sc(CC(F)(F)F)cc34)C2)C1` (some centres unmarked) [Example 57, 4-(7-prolyl-2,7-diazaspiro[4.4]nonan-2-yl)-6-(2,2,2-trifluoroethyl)thieno[2,3-d]pyrimidine] was 100 to 1000 nM.
Next, `FC(F)(F)Cc1cc2c(N3CCC4(CCN(Cc5ccccc5)CC4)C3)ncnc2s1` [Example 116, 4-(8-benzyl-2,8-diazaspiro[4.5]decan-2-yl)-6-(2,2,2-trifluoroethyl)thieno[2,3-d]pyrimidine]: not below 1000 nM.
Consider `FC(F)(F)Cc1ccc2ncnc(N3CC4(CN(CC5CCOCC5)C4)C3)c2c1` [Example 91, 4-(6-((tetrahydro-2H-pyran-4-yl)methyl)-2,6-diazaspiro[3.3]heptan-2-yl)-6-(2,2,2-trifluoroethyl)quinazoline], for which the concentration for half-maximal inhibition (IC50) is not below 1000 nM.
Turning to `FC(F)(F)Cc1cc2c(N3CC4(CN(CC5COC5)C4)C3)ncnc2s1` [Example 73, 4-(6-(oxetan-3-ylmethyl)-2,6-diazaspiro[3.3]heptan-2-yl)-6-(2,2,2-trifluoroethyl)thieno[2,3-d]pyrimidine], the IC50 was not below 1000 nM.
Next, `FC(F)(F)Cc1cc2c(N3CCC4(CC3)CN(C3CCCCC3)C4)ncnc2s1` [Example 9, 4-(2-cyclohexyl-2,7-diazaspiro[3.5]nonan-7-yl)-6-(2,2,2-trifluoroethyl)thieno[2,3-d]pyrimidine]: 100 to 1000 nM.
The compound `CC(=O)Nc1ccc(CN2CCC3(CC2)CN(c2ncnc4sc(CC(F)(F)F)cc24)C3)cc1` [Example 103, N-(4-((2-(6-(2,2,2-trifluoroethyl)thieno[2,3-d]pyrimidin-4-yl)-2,7-diazaspiro[3.5]nonan-7-yl)methyl)phenyl)acetamide] had an IC50 of 100 to 1000 nM.
The compound `FC(F)(F)Cc1cc2c(N3CC4(CCN(Cc5ccccc5)C4)C3)ncnc2s1` [Example 95, 4-(6-benzyl-2,6-diazaspiro[3.4]octan-2-yl)-6-(2,2,2-trifluoroethyl)thieno[2,3-d]pyrimidine] gave a 50% inhibitory concentration (IC50) not below 1000 nM.
The value for `FC(F)(F)Cc1cc2c(N3CCC4(CC3)CN(CC3CCCCO3)C4)ncnc2s1` (centres unmarked) [Example 6, 4-(2-((tetrahydro-2H-pyran-2-yl)methyl)-2,7-diazaspiro[3.5]nonan-7-yl)-6-(2,2,2-trifluoroethyl)thieno[2,3-d]pyrimidine] was not below 1000 nM; that for `CC(C)N1CC2(CCN(c3ncnc4sc(CC(F)(F)F)nc34)CC2)C1` [Example 80, 7-(2-isopropyl-2,7-diazaspiro[3.5]nonan-7-yl)-2-(2,2,2-trifluoroethyl)thiazolo[5,4-d]pyrimidine] was not below 1000 nM.
Next, `CC(C)(F)CN1CC2(CCN(c3ncnc4sc(CC(F)(F)F)cc34)CC2)C1` [Example 16, 4-(2-(2-fluoro-2-methylpropyl)-2,7-diazaspiro[3.5]nonan-7-yl)-6-(2,2,2-trifluoroethyl)thieno[2,3-d]pyrimidine]: not below 1000 nM; `O=C1N(Cc2ccccc2)CCC12CCN(c1ncnc3sc(CC(F)(F)F)cc13)C2` (centres unmarked) [Example 59, 2-benzyl-7-(6-(2,2,2-trifluoroethyl)thieno[2,3-d]pyrimidin-4-yl)-2,7-diazaspiro[4.4]nonan-1-one]: not below 1000 nM.
As to `FC(F)(F)Cc1cc2c(N3CCC4(CC3)CN(CC3CCOCC3)C4)ncnc2s1` [Example 19, 4-(2-((tetrahydro-2H-pyran-4-yl)methyl)-2,7-diazaspiro[3.5]nonan-7-yl)-6-(2,2,2-trifluoroethyl)thieno[2,3-d]pyrimidine], the IC50 lay within 100 to 1000 nM.
The value for `CC(C)CN1CC2(CCN(c3ncnc4sc(CC(F)(F)F)nc34)CC2)C1` [Example 81, 7-(2-isobutyl-2,7-diazaspiro[3.5]nonan-7-yl)-2-(2,2,2-trifluoroethyl) thiazolo[5,4-d]pyrimidine] was not below 1000 nM; that for `CS(=O)(=O)Nc1ccc(CN2CCC3(CCN(c4ncnc5sc(CC(F)(F)F)nc45)C3)C2)cc1` (centres unmarked) [Example 84, N-(4-((7-(2-(2,2,2-trifluoroethyl)thiazolo[5,4-d]pyrimidin-7-yl)-2,7-diazaspiro[4.4]nonan-2-yl)methyl)phenyl)methanesulfonamide] was less than 100 nM.
Regarding `COC(=O)Nc1cccc(CN2CCC3(CCN(c4ncnc5sc(CC(F)(F)F)cc45)C3)C2)c1` (centres unmarked) [Example 53, methyl (3-((7-(6-(2,2,2-trifluoroethyl)thieno[2,3-d]pyrimidin-4-yl)-2,7-diazaspiro[4.4]nonan-2-yl)methyl)phenyl)carbamate], the IC50 is less than 100 nM.
`Cc1c(CN2CC3(CCN(c4ncnc5sc(CC(F)(F)F)cc45)C3)C2)ccc2[nH]c(C#N)cc12` [Example 112, 4-methyl-5-((6-(6-(2,2,2-trifluoroethyl)thieno[2,3-d]pyrimidin-4-yl)-2,6-diazaspiro[3.4]octan-2-yl)methyl)-1H-indole-2-carbonitrile]: the IC50 is 100 to 1000 nM.
The compound `CC1(C)CCC(CN2CC3(C2)CN(c2ncnc4sc(CC(F)(F)F)cc24)C3)CC1` [Example 64, 4-(6-((4,4-dimethylcyclohexyl)methyl)-2,6-diazaspiro[3.3]heptan-2-yl)-6-(2,2,2-trifluoroethyl)thieno[2,3-d]pyrimidine] gave an IC50 of 100 to 1000 nM.
The value for `Cc1c(CN2CC3(CCN(c4ncnc5sc(CC(F)(F)F)cc45)CC3)C2)ccc2[nH]c(C#N)cc12` [Example 21, 4-methyl-5-((7-(6-(2,2,2-trifluoroethyl)thieno[2,3-d]pyrimidin-4-yl)-2,7-diazaspiro[3.5]nonan-2-yl)methyl)-1H-indole-2-carbonitrile] was 100 to 1000 nM; that for `FC(F)(F)Cc1nc2c(N3CCC4(CCN(Cc5ccccc5)C4)C3)ncnc2s1` (centres unmarked) [Example 82, 7-(7-benzyl-2,7-diazaspiro[4.4]nonan-2-yl)-2-(2,2,2-trifluoroethyl)thiazolo[5,4-d]pyrimidine] was 100 to 1000 nM.
The value for `CCC(C)CN1CCC2(CC1)CCN(c1ncnc3sc(CC(F)(F)F)cc13)C2` (centres unmarked) [Example 114, 4-(8-(2-methylbutyl)-2,8-diazaspiro[4.5]decan-2-yl)-6-(2,2,2-trifluoroethyl)thieno[2,3-d]pyrimidine] was 100 to 1000 nM.
`O=C(C1CCCNC1)N1CCC2(CCN(c3ncnc4sc(CC(F)(F)F)cc34)C2)C1` (centres unmarked) [Example 55, piperidin-3-yl(7-(6-(2,2,2-trifluoroethyl)thieno[2,3-d]pyrimidin-4-yl)-2,7-diazaspiro[4.4]nonan-2-yl)methanone] showed an IC50 of 100 to 1000 nM.
Next, `CC(C)CN1CCC2(CC1)CN(c1ncnc3sc(CC(F)(F)F)cc13)C2` [Example 101, 4-(7-isobutyl-2,7-diazaspiro[3.5]nonan-2-yl)-6-(2,2,2-trifluoroethyl)thieno[2,3-d]pyrimidine]: 100 to 1000 nM; `O=C1CC2(CCN(Cc3ccc4[nH]c(=O)[nH]c4c3)C2)CN1c1ncnc2sc(CC(F)(F)F)cc12` (centres unmarked) [Example 118, 7-((2-oxo-2,3-dihydro-1H-benzoldlimidazol-5-yl)methyl)-2-(6-(2,2,2-trifluoroethyl)thieno[2,3-d]pyrimidin-4-yl)-2,7-diazaspiro[4.4]nonan-3-one]: 100 to 1000 nM.
